Source: patent publication US11090386B2, “Method for suppressing bitterness of quinoline derivative” (Eisai R&D Management Co., Ltd., priority 2015, dated 2021)
Counter-ions that a name gives are not always drawn.

Experiments:
[1] = Bitterness measurement with taste perception apparatus, relative bitterness to Comparative Example 1; format: physicochemical; conditions: AC0 taste sensor; lenvatinib mesylate 9.8 mg/mL (8 mg/mL free form) in 10 mM potassium chloride aqueous solution, additive added, stirred 30 minutes, supernatant; average of three measurements
Method: Herein, the “bitterness” of Compound 1 or the pharmaceutically acceptable salt thereof is measured by the following method. A solution of Compound 1 at a concentration of 8 mg/mL as a free form is prepared by dissolving Compound 1 or the pharmaceutically acceptable salt thereof in a 10 mM potassium chloride aqueous solution. To the thus obtained solution, an additive is added if necessary, and the resultant is stirred for 30 minutes and then centrifuged to give a liquid phase component. The bitterness of the liquid phase component is measured using a taste sensor (ACO) for measuring bitterness, and the thus obtained value is used as a bitterness index. […]
The measurement with the taste perception apparatus was performed four times on each sample, and three measurement results of the second to fourth measurements were used for the analysis. […] It is noted that the relative bitterness was calculated using merely data obtained through a series of continuous measurements. Relative bitterness to Comparative Example 1(%)=(Measured value of each sample−Measured value of 10 mM potassium chloride aqueous solution)/(Measured value of Comparative Example 1—Measured value of 10 mM potassium chloride aqueous solution)×100%

[2] = Relative comparison of bitterness with taste perception apparatus (relative to Reference Example 7); conditions: aqueous solution of lenvatinib mesylate at a concentration of 1.225 mg/mL or more
Method: Herein, the “bitterness” of Compound 1 or the pharmaceutically acceptable salt thereof is measured by the following method. A solution of Compound 1 at a concentration of 8 mg/mL as a free form is prepared by dissolving Compound 1 or the pharmaceutically acceptable salt thereof in a 10 mM potassium chloride aqueous solution. To the thus obtained solution, an additive is added if necessary, and the resultant is stirred for 30 minutes and then centrifuged to give a liquid phase component. The bitterness of the liquid phase component is measured using a taste sensor (ACO) for measuring bitterness, and the thus obtained value is used as a bitterness index.
As a blank solution for correction, a 10 mM potassium chloride aqueous solution was subjected to the measurement. […] Relative bitterness to Reference Example 7 was calculated in accordance with the following expression, and an average of the three measurement values is shown in Table 4 and FIG. 1. It is noted that the relative bitterness was calculated using merely data obtained through a series of continuous measurements. Relative bitterness to Reference Example 7(%)=(Measured value of each sample−Measured value of 10 mM potassium chloride aqueous solution)/(Measured value of Reference Example 7—Measured value of 10 mM potassium chloride aqueous solution)×100%

| Compound | Relative Bitterness to Comparative Example 1 (%) [1] | bitterness compared with a 0.1 mM quinine hydrochloride aqueous solution [2] |
| --- | --- | --- |
| COc1cc2nccc(Oc3ccc(NC(=O)NC4CC4)c(Cl)c3)c2cc1C(N)=O [Comparative Example 1, Lenvatinib Mesylate] | 100% | – |
| COc1cc2nccc(Oc3ccc(NC(=O)NC4CC4)c(Cl)c3)c2cc1C(N)=O [lenvatinib mesylate, Lenvatinib Mesylate] | – | more bitter than a 0.1 mM quinine hydrochloride aqueous solution |
